Data taken from ChEMBL document CHEMBL1201862, “PubChem BioAssay data set” (2004).
Active and inactive are the calls of the source.

Experiments:
[1] = viability loss in HEK293T cells – cell-based, cherry-picks, cytotoxicity control for HIV Vif inhibitor project, dose response (AID 652208); type: functional
[2] = alpha-synuclein stem-loop luciferase translation blockers – H4 neuroglioma cells, luminescence, confirmation (AID 1988); type: functional, cell-based
[3] = test system: INS1; assay: INS-1E survival protection against cytokine death – cell-based, luminescence, retest, dose response (AID 449756); type: functional; conditions: Rattus norvegicus;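 also: cell death triggered by IL-1 beta plus TNF-alpha plus IFN-gamma mixture; protective hits raise ATP signal compared with cytokine alone wells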
[4] = luciferase reporter signal suppression in cells – H4 neuroglioma cells, luminescence, dose response (AID 1990); type: functional, cell-based
[5] = Luminescence Cell-Based Dose Response HTS to Identify Inhibitors of 5'UTR Stem-Loop Driven Prion Protein mRNA Translation in H4 Neuroglioblastoma Cells. [Related pubchem assays: 1827 (Project Summary), 1813 (Primary HTS)]; type: functional
[6] = biological target: G-protein coupled receptor 55 (Homo sapiens, UniProt Q9Y2T6); assay: selective activators of receptor GPR55 – imaging, U2OS cells, beta-arrestin-GFP redistribution, primary screen (AID 1961); type: functional
Chain of G-protein coupled receptor 55 (Q9Y2T6 whole entry): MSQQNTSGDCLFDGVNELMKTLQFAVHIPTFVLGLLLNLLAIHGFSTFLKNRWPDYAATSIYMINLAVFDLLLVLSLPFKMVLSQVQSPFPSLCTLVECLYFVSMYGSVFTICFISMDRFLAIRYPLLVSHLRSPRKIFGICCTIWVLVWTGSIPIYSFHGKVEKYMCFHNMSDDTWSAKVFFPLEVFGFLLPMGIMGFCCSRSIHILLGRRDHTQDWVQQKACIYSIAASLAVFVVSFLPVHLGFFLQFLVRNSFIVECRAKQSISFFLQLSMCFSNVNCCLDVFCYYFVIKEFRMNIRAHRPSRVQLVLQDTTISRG

[7] = biological target: SWI/SNF-related matrix-associated actin-dependent regulator of chromatin subfamily A member 2 (Homo sapiens, UniProt P51531); assay: Luminescence-based cell-based high throughput dose response assay to identify activators of the function of SWI/SNF related, matrix associated, actin dependent regulator of chromatin, subfamily a, member 2 (SMARCA2, BRM).; type: functional
Chain of SWI/SNF-related matrix-associated actin-dependent regulator of chromatin subfamily A member 2 (P51531 whole entry): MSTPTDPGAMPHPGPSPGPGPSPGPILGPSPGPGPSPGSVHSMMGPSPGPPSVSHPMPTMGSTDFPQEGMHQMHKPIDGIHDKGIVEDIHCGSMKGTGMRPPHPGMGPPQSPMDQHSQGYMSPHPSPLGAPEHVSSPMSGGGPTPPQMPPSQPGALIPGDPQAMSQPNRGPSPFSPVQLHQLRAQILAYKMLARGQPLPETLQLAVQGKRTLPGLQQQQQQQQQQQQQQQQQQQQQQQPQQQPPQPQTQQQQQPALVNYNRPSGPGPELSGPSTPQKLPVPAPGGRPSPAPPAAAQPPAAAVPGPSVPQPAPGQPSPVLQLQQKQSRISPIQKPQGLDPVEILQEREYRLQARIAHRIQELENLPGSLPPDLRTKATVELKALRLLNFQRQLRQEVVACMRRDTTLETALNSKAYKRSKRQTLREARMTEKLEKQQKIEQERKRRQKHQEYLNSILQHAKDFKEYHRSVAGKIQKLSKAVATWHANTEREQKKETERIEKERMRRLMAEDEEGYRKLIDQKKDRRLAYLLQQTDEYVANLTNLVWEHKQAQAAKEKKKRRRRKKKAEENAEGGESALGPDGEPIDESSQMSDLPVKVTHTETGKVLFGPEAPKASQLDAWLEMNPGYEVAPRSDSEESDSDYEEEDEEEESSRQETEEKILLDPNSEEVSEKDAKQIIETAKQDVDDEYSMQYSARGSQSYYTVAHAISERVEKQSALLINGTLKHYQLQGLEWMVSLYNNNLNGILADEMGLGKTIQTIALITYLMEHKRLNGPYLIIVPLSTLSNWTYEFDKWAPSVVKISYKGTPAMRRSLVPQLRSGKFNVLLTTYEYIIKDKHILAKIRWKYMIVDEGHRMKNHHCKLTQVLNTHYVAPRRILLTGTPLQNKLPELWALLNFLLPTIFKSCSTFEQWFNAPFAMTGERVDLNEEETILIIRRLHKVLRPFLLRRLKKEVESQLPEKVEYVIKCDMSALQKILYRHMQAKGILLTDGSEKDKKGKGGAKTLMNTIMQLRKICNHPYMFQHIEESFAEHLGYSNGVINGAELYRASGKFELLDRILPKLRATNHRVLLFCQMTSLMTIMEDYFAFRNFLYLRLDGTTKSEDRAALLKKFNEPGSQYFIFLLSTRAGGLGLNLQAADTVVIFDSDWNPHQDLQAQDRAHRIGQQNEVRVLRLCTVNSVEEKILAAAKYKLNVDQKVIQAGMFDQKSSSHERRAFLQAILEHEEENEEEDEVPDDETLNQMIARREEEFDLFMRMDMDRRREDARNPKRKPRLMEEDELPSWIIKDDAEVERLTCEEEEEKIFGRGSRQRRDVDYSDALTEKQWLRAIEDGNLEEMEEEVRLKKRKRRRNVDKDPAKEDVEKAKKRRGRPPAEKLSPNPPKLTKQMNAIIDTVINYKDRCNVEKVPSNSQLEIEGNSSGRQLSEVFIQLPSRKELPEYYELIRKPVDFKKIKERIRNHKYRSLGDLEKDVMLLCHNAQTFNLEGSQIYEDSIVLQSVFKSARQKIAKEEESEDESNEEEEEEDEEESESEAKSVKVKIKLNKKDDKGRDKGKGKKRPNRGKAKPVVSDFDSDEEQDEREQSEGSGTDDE

[8] = Counterscreen for activators of the function of SWI/SNF related, matrix associated, actin dependent regulator of chromatin, subfamily a, member 2 (SMARCA2, BRM): Luminescence-based cell-based high throughput dose response assay to identify non-selective compounds using the VP16 reporter assay.; type: functional
[9] = non-specific 3'UTR reporter inhibition in Clone20-Shn3RL – cell-based, Renilla luciferase, cherry-picked, counter-screen for Shn3 inhibitor project, dose response (AID 624133); type: functional
[10] = reduction of Shn3 3'UTR-driven luciferase in osteoblasts – cell-based, Clone20 osteoblasts, firefly luciferase, cherry-picked, dose response (AID 624132); type: functional;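 also: firefly luciferase luminescence from reporter carrying the Shn3 3'UTR in osteoblasts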
[11] = EF1alpha-driven Renilla reporter with control 3'UTR suppression – Clone20-Shn3RL cells, dual-Glo, cherry-pick, set 2, counter-screen for Shn3 3'UTR targeting project, dose response (AID 720724); type: functional, cell-based; conditions: Dual-Go Shn3RL
[12] = cells; type: functional
[13] = biological target: T1, Protein RecA (Mycobacterium tuberculosis, UniProt P9WHJ3); assay: Fluorescence Cell-Free Homogeneous Dose Retest to Identify Inhibitors of RecA-Intein Splicing Activity. [Related pubchem assays (depositor defined):AID2097, AID2223, AID489010, AID492950]; type: functional
T1 sequence (P9WHJ3 whole entry): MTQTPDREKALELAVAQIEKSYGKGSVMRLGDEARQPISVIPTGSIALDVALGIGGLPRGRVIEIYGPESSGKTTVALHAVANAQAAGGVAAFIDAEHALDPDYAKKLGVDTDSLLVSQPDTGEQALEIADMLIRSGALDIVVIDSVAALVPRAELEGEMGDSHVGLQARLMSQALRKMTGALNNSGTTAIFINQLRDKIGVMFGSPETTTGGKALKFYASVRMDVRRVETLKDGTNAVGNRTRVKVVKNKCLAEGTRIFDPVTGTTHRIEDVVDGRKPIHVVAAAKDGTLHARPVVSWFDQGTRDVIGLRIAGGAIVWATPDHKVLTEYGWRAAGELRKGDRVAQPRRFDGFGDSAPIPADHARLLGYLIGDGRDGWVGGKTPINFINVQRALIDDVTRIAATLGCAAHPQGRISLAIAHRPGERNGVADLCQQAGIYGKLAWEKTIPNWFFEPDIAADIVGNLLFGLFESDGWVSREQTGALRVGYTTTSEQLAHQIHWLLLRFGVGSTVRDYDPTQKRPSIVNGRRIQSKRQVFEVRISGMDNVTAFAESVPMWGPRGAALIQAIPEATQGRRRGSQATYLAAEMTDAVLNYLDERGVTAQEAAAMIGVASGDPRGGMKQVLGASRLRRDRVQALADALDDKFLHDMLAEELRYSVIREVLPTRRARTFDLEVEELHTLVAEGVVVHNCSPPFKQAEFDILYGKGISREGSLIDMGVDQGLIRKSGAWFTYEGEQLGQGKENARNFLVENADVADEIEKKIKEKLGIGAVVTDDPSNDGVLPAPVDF

[14] = biological target: T2, Replicative DNA helicase DnaB (Mycobacterium tuberculosis, UniProt P9WMR3); assay: DnaB intein splicing inhibitors, dose response, biochemical, cell-free fluorescence (AID 449749); type: functional
T2 sequence (P9WMR3 whole entry): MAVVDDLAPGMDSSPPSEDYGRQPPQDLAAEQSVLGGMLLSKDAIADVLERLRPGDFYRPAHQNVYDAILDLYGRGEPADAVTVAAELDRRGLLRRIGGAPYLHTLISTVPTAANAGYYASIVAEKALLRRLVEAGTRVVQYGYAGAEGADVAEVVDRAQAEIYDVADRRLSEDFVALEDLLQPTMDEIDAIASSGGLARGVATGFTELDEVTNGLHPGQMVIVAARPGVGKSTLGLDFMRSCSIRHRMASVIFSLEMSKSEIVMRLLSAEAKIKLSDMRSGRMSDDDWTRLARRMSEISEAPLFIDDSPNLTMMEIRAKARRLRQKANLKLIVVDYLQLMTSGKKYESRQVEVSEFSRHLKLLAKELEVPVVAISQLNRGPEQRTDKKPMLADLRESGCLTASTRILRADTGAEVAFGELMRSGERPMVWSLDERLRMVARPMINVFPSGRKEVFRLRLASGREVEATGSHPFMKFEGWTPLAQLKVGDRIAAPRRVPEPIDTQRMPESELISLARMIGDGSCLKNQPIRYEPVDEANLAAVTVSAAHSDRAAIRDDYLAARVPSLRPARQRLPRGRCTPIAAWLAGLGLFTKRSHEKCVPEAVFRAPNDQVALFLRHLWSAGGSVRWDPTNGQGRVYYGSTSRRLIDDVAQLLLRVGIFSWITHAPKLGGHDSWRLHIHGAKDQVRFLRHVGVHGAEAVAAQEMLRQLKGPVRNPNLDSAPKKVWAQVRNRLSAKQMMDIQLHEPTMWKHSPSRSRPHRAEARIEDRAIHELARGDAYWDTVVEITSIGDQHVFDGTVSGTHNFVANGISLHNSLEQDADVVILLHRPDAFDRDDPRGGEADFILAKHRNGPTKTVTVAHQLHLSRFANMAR

[15] = loss of viability in HepG2 cells – cell-based, CellTiter-Glo, cherry-picked, cytotoxicity control for Shn3 inhibitor project, dose response (AID 624134); type: functional
[16] = reduced cellular PGC1a acetyl-lysine signal – cell-based, cherry-picked samples, dose response (AID 720514); type: functional;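 also: potency may reflect raised or lowered acetylation signal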
[17] = Fluorescence-based cell-based high throughput dose response assay for inhibitors of the interaction of nucleotide-binding oligomerization domain containing 2 (NOD2) and the receptor-interacting serine-threonine kinase 2 (RIPK2).; type: functional; conditions: Homo sapiens
[18] = THP-1 cell cytotoxicity, dose response, cytotoxicity control for non-replicating M. tuberculosis project (AID 489025); type: functional
[19] = Shn3 3'UTR reporter signal decrease – cell-based, Clone20 osteoblasts, firefly luciferase, cherry-pick, set 2, Schnurri-3 inhibitor project, dose response (AID 720490); type: functional;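 also: actives lower the luminescence signal as inhibitors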
[20] = Luminescence Cell-Based Dose Retest to Confirm Inhibitors of Cancer Stem Cells. [Related pubchem assays (depositor defined):AID2717, AID2721]; type: functional; conditions: Homo sapiens
[21] = HGIII-sPLA2 enzyme inhibition potency – biochemical, QFRET, IC50, dose response (AID 743457);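 also: green fluorescence rise as the enzyme cleaves BODIPY PC-A2 in liposomes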
[22] = biological target: T3, Protein Wnt-3a (Mus musculus, UniProt P27467); assay: antagonism of Wnt3a pathway luciferase reporter – Wnt-LIGHT cells, luminescence, selectivity assay for Gli-SUFU antagonist project, dose response (AID 651570); type: functional; conditions: read-out: IC50_Mean;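 also: Wnt-LIGHT reporter cells stimulated with conditioned medium from Wnt3a-producing cells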
T3 sequence (P27467 whole entry): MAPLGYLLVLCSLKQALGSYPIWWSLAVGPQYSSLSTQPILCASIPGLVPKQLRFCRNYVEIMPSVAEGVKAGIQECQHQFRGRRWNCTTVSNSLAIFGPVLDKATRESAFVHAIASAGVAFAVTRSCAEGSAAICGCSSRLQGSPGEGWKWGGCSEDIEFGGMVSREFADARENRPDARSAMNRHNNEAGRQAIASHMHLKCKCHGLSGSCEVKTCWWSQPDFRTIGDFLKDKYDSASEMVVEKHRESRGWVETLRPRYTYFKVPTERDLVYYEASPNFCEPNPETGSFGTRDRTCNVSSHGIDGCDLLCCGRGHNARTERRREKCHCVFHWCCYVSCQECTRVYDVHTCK

[23] = biological target: Matrix metalloproteinase-14 (Homo sapiens, UniProt P50281); assay: Dose Response confirmation of uHTS hits for a small molecule inhibitors of MT1-MMP activation in a fluorescence assay set 1.; type: functional
[24] = biological target: Beta-galactosidase (Escherichia coli, UniProt Q8VNN2); assay: Dose response counterscreen for EBI2 assay utilizing the enzyme, b-galactosidase.; type: functional
Chain of Beta-galactosidase (Q8VNN2 whole entry): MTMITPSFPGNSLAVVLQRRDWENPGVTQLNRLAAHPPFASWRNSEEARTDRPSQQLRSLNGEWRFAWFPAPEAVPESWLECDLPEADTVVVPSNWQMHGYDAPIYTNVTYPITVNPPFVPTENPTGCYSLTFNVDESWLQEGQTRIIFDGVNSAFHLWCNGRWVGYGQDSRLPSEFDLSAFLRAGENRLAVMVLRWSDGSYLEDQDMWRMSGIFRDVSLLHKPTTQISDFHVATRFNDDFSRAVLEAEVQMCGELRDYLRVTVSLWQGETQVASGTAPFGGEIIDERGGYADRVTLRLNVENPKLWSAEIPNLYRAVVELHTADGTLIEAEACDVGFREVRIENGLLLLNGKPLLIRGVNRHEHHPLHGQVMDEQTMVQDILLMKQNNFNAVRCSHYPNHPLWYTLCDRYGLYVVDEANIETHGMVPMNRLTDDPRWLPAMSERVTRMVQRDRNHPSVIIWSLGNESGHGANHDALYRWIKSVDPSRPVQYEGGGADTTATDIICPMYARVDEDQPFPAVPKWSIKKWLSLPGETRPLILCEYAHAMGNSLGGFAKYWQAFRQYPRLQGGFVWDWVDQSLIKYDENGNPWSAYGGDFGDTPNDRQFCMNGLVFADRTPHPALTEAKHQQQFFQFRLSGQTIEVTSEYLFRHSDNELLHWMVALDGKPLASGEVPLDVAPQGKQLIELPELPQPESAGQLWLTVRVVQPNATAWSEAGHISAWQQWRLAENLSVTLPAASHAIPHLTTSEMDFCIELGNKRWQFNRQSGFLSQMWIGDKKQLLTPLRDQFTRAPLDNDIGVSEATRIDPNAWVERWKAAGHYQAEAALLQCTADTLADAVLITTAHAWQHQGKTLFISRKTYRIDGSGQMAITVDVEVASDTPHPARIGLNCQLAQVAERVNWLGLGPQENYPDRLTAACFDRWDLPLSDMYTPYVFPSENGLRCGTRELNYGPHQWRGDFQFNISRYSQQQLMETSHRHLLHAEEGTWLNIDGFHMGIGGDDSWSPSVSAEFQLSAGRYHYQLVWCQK

[25] = Late stage assay provider results from the probe development effort to identify inhibitors of the Plasmodium falciparum M17 Leucine Aminopeptidase (M17LAP): radiolabel-based cell-based dose response assay to identify compounds that inhibit P. falciparum growth in RBCs Set 2.; type: functional
[26] = mouse fibroblast viability loss – cell-based, cherry-pick samples, set 2, cytotoxicity control for T. cruzi growth inhibitor project, dose response (AID 651817); type: functional; conditions: NIH3T3
[27] = intracellular Trypanosoma cruzi inhibitors in host cells – cell-based, plate reader, cherry-pick samples, set 3, dose response (AID 651818); type: functional;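 also: compounds incubated with infected cells for about four days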
[28] = biological target: T3, Protein Wnt-3a; assay: SAR analysis of small molecule antagonists of Gli-SUFU in a Wnt3a luminescent reporter assay.; type: functional
[29] = anti-trypanosomal activity in BESM host cells – imaging, CA-I/72 strain, bovine embryo skeletal muscle, dry powder, dose response (AID 651885); type: functional, cell-based
[30] = biological target: T4, Rac GTPase-activating protein 1 (Homo sapiens, UniProt Q9H0H5); assay: blockers of MgcRacGAP-driven Rac1 GTP hydrolysis – biochemical, ADP Hunter fluorescence, primary and confirmatory, confirmation (AID 624330); type: functional
T4 sequence (Q9H0H5 whole entry): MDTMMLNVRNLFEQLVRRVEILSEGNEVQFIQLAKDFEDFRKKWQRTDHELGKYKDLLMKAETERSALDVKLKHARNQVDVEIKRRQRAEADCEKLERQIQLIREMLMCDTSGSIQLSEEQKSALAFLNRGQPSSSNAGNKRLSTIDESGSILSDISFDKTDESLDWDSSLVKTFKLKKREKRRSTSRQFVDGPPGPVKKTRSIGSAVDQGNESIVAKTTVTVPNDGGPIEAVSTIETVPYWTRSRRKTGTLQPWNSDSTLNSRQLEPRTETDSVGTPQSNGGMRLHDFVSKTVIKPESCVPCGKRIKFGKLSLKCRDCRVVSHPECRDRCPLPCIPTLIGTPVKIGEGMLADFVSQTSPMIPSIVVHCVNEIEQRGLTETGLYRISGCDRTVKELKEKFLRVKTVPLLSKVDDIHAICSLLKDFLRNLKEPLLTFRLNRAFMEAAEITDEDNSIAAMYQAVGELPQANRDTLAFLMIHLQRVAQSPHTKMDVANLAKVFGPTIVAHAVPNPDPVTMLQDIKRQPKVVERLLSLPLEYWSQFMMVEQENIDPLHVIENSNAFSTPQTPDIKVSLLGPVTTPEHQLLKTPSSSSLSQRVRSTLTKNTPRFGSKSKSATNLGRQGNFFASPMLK

[31] = biological target: T5, Sentrin-specific protease 1 (Homo sapiens, UniProt Q9P0U3); assay: Dose response confirmation of small molecule inhibitors of the catalytic domain of the SUMO protease, SENP1 in a FRET assay.; type: functional; conditions: read-out: IC50_Mean
T5 sequence (Q9P0U3 whole entry, the tested form may be a part): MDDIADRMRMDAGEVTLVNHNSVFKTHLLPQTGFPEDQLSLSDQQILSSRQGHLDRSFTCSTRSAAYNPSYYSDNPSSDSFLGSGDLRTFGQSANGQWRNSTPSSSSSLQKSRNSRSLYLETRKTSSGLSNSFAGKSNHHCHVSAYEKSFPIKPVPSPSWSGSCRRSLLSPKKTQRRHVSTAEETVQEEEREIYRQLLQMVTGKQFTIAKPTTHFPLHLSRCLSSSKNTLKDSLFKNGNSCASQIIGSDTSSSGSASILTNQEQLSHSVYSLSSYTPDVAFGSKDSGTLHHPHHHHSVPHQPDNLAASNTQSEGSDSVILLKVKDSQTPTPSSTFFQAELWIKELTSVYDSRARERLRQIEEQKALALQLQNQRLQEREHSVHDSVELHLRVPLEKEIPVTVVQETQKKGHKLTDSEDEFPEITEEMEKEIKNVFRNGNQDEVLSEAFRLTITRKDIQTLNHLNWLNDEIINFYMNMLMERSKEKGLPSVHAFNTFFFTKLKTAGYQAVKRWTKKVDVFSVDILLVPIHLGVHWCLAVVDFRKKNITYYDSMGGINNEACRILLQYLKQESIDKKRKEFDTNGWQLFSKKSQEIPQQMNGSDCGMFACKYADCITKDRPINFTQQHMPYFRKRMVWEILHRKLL

[32] = biological target: T5, Sentrin-specific protease 1; assay: SENP1 catalytic domain blockers, concentration series – biochemical, kinetic FRET, dose response (AID 651697); type: functional; conditions: read-out: IC50_Mean
[33] = biological target: Large T antigen (Simian virus 40, UniProt P03070); type: functional, Betapolyomavirus macacae;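 also: Confirmatory-stage PubChem screen for compounds that inhibit SV40 T antigen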
Chain of Large T antigen (P03070 whole entry): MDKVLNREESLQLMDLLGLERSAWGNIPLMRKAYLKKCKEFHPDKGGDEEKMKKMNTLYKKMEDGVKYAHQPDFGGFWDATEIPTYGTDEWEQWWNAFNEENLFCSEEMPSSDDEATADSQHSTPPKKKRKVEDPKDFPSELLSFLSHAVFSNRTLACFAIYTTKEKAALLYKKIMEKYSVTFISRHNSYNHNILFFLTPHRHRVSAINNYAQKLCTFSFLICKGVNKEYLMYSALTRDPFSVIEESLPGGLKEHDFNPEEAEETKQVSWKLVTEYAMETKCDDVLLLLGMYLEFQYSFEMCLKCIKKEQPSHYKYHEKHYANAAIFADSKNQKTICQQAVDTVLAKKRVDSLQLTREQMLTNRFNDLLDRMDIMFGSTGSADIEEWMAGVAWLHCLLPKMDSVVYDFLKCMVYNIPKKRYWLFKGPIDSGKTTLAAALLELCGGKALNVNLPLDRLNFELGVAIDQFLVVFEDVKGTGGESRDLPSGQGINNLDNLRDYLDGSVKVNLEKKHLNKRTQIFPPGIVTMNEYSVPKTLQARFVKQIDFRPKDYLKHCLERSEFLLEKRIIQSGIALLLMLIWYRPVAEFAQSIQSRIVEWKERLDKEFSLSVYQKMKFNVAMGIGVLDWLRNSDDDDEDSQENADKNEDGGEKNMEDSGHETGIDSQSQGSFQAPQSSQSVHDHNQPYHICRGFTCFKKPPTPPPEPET

SMILES: Nc1c(C(=O)Nc2ccc(S(=O)(=O)N3CCCC3)cc2)sc2nc3ccc(OC(F)(F)F)cc3cc12
- AC50 [1]: 15.7 µM (active)
- EC50 [2]: 2.05 µM (active)
- AC50 [3]: 3.5 µM (active)
- EC50 [4]: 5.71 µM (inconclusive)
- EC50 [5]: 4.12 µM (active)
- EC50 [6]: 3.77 µM (active)

SMILES: Cc1ccc2nc(O)c3cc(C(=O)N(C)Cc4ccco4)sc3c2c1
- EC50 [7]: > 91.2 µM (inactive)
- EC50 [8]: > 91.2 µM (inactive)

SMILES: COc1ccc(-c2cc(C(F)(F)F)nc(S(C)(=O)=O)n2)cc1
- AC50 [9]: 26.3 µM (active)
- AC50 [10]: 4.46 µM (active)
- AC50 [11]: 48.6 µM (active)
- IC50 [12]: 10.9 µM (active)
- EC50 [13]: 4.88 µM (active)
- AC50 [14]: 5.99 µM (active)
- AC50 [15]: 45.9 µM (active)
- AC50 [16]: 15.3 µM (active)
- IC50 [17]: 5.47 µM (active)
- CC50 [18]: 26 µM (active)
- AC50 [19]: 5.05 µM (active)
- AC50 [20]: 3.81 µM (active)

SMILES: COc1ccc(NC(=O)NNC(=O)c2ccc3ccccc3c2O)c(OC)c1
- IC50 [21]: > 122 µM (inactive)

SMILES: C[N+]1=C(/C=C/Nc2ccccc2)C(C)(C)c2ccccc21
- IC50 [22]: 50 µM (inactive)
- IC50 [23]: 17.4 µM (active)

SMILES: COc1ccc2cc(C(=O)N3CCN(c4cccc(C)c4C)CC3)[nH]c2c1
- IC50 [24]: > 80 µM (inactive)

SMILES: CCCCCCCCCC(=O)NO
- IC50 [25]: 27 µM (inactive)

SMILES: Cc1ccc(S(=O)(=O)Nc2ccc3c(c2)CC(=O)N([C@H](C)CO)C[C@@H](C)[C@@H](CN(C)Cc2ccc(Cl)c(Cl)c2)O3)cc1
- AC50 [26]: 9.47 µM (active)
- AC50 [27]: 3.29 µM (active)

SMILES: O=C(Nc1cc(N2CCCCC2)ncn1)c1cccc(F)c1
- IC50 [28]: > 21.8 µM (inactive)

SMILES: C[C@H]1CN([C@@H](C)CO)C(=O)c2cccc(NC(=O)c3ccncc3)c2O[C@@H]1CN(C)Cc1ccc(C(=O)Nc2ccccc2N)cc1
- IC50 [29]: > 20 µM (inactive)

SMILES: NC(=O)N/N=C/c1ccc(N2CCOCC2)s1
- IC50 [30]: 40.4 µM (active)
- IC50 [31]: 11.1 µM (active)
- IC50 [32]: 9.07 µM (active)
- IC50 [33]: 13.8 µM (active)
